The test system of the experiment is hippocampal slices. Description: Hippocampal slice cultures and induction of LTP (immunohistochemistry of LTP markers). On pCREB: key: ±: no change in the activation status; ++++: a qualitative maximal activation; ++: a half-maximum activation; −: a reduction of activation. On pMAPK: key: ±: no change in the activation status; ++++: a qualitative maximal activation; ++: a half-maximum activation; −: a reduction of activation. Type of experiment: cell-based, Wistar rats. Particulars: for AMPA rec. (AMPA receptors on the cell surface): 15 min treatment; for pMAPK / pCREB: relative activation vs vehicle treated sister cultures, 15 min treatment after 48 h in culture. On the procedure:
Seven-day-old Wistar rats were decapitated using a guillotine. In less than 1 minute the skull was opened, the cerebral hemispheres were separated and transferred and both hippocampi were dissected and transferred into ice cold buffer containing 137 mM NaCl, 5 mM KCl, 0.85 mM Na2HPO4, 1.5 mM CaCl2, 0.66 mM KH2PO4, 0.28 mM MgSO4, 1 mM MgCl2, 2.7 mM NaHCO3, 1 mM Kynurenic acid and 0.6% D-glucose. Transversal hippocampal slices (typically 400 μm) were prepared using a vibrating blade microtome (VT1200S; Leica Microsystems (Schweiz) AG, Heerbrugg, Switzerland) in the same buffer. Hippocampal slices were individually placed on a membrane insert (Millicell Culture Plate Inserts, 0.4 μm) and cultivated at 35° C., 5% CO2, 95% humidity in a medium containing a 1:1 mixture of BME and MEM (both from Invitrogen) containing 25% heat-inactivated horse serum, 1× GlutaMAX, 1× Penicillin/Streptomycin, 0.6% glucose and 1 mM Kynurenic acid (Stoppini et al. 1991 J Neurosci Methods 37(2):173-82). […] Sarcosine (100 μM) and ALX5407 (20 nM) were used routinely as positive controls. […] After the treatments, sections were washed and fixed for immunohistochemistry. Markers of enhanced synaptic activity, normally associated with LTP, representing an in vitro (or ex vivo) model of learning and memory, were quantified (see Table 1, below). Table 1. Relative activation of synaptic markers after treatment with both extracts and some of their constituent compounds in comparison to sister cultures treated with buffer. The activation of any of these markers (or a combination thereof) is observed in classical LTP experiments. Data are compared to vehicle treated sections, which is set as 100%.

The mark [1] stands for this setting: compared to vehicle treated sections set as 100%.
[2] abbreviates: class symbol, vs vehicle treated sister cultures.

The text below walks through data of patent US20110104716A1, “NOVEL METHOD FOR SCREENING BRAIN-ACTIVE COMPOUNDS” (priority 2007, published 2011).

“Also recorded” adds a separate entry of the source. Read-outs that look alike come from different tables or passages of the source.

With `Cc1ccc(C(C)C)cc1O` [Carvacrol], the “LTP-inducing activity (biochemical markers typical for LTP)” value (“LTP-inducing activity” for short) was “lack the LTP-inducing activity” and the pMAPK result is recorded as “−”. Moreover, the “AMPA rec. (AMPA receptors on the cell surface)” value under setting [1] is given as 0-176%.

For the compound `NCC(=O)O` [Glycine], the pCREB result was “++” and the pMAPK result was “++”.

As to `C=CC(C)(O)CCC=C(C)C` (centres unmarked) [Linalool], the “LTP-inducing activity” value is on record as “lack the LTP-inducing activity”, the pCREB entry is “±” and the pMAPK result is “±”. The “AMPA rec. (AMPA receptors on the cell surface)” value under setting [2] is listed as “±”.

`Cc1ccc(C(C)C)cc1` [P-Cymene]: the “LTP-inducing activity” value was “induce activation of biochemical pathway leading to LTP induction”, the pCREB entry is recorded as “++” and the pMAPK result was “++++”. In addition, the “AMPA rec. (AMPA receptors on the cell surface)” value under setting [2] was “±”. The “LTP-inducing activity” value (listed as p-cemene) is on record as “induced biochemical markers typical for LTP”.

With `Cc1ccc(C(C)C)c(O)c1` [Thymol], the “LTP-inducing activity” value is given as “induced biochemical markers typical for LTP; also recorded: induce activation of biochemical pathway leading to LTP induction” and the pCREB result is “++++”. For the same compound, the “AMPA rec. (AMPA receptors on the cell surface)” value under setting [1] is 250-767%.

Caryophyllene: the “LTP-inducing activity” value is reported as “lack the LTP-inducing activity”, the pCREB result was “±” and the pMAPK result is given as “±”.
